Source: patent US20220047567A1, “METHODS FOR THE TREATMENT OF NEUROFIBROMATOSIS” (INSERM (INSTITUT NATIONAL DE LA SANTÉ ET DE LA RECHERCHE …, priority 2018, published 2022)
Entries after “also recorded” stand apart in the source; their conditions may differ.

Assays:
[1] = system: PIK3CA pathway (phosphorylation of AKT and S6RP) in NF1−/− cells; assay: Western blot of AKT and S6RP phosphorylation in immortalized NF1−/− cells; assay type: cell-based; conditions: after 12 h of exposure
Excerpt: (§1) FIG. 1: NF1+/+ and NF1−/− cells were exposed to either DMSO, BYL719 at different concentrations […], selumetinib at different concentrations (1 and 10 mmol·L−1) or a combination of BYL719 1 mmol·L−1 and selumetinib 10 mmol·L−1 or BYL719 1 mmol·L−1 and selumetinib 10 mmol·L−1 and IPA3. […] The addition of BYL719 to either selumetinib or selumetinib and IPA3 increases cells apoptosis. All data are shown as the means±s.e.m. ANOVA followed by Tukey-Kramer test. White column: NF1+/+, black column: NF1−/−.
(§2) Inventors first checked in immortalized NF1−/− cells if the PIK3CA pathway was recruited (FIGS. 1A, 1B and 1C). […] They then treated the cells with BYL719. […] They then exposed the NF1−/− cells to different dose of selumetinib, a MAP kinase inhibitor, drug that gave encouraging results in some patients with neurofibromatosis.

[2] = system: NF1−/− cells; assay: Apoptosis assessed by PARP cleavage in NF1−/− cells; assay type: cell-based; conditions: different doses, FIG. 1C
Excerpt: as §1, §2

## Cc1nc(NC(=O)N2CCC[C@H]2C(N)=O)sc1-c1ccnc(C(C)(C)C(F)(F)F)c1 [BYL719]
[1]; FIG. 1A
  phosphorylation of AKT: efficiently blocks; also recorded: efficiently blocking
[1]; FIG. 1B
  phosphorylation of S6RP: efficiently blocks; also recorded: efficiently blocking
[2]
  apoptosis as assessed by PARP cleavage: induces apoptosis; also recorded: increased apoptosis as assessed by PARP cleavage in a dose dependent manner
